Common to all, as to assay type: functional, organism-based
Experiment [1] concerns Candida albicans. Description: Antifungal activity against Candida albicans at 50 ug/disk by standard disk assay.
Experiment [2] concerns Bacillus subtilis. Kind of experiment: Antimicrobial activity against Bacillus subtilis at 25 ug/disk by standard disk assay.
For experiment [3], the system named is Pseudomonas aeruginosa. Kind of experiment: Antimicrobial activity against Pseudomonas aeruginosa at 100 ug/disk by standard disk assay.
Experiment [4] concerns Escherichia coli. Kind of experiment: Antimicrobial activity against Escherichia coli at 25 ug/disk by standard disk assay.
The test system of experiment [5] is Staphylococcus aureus. Kind of experiment: Antimicrobial activity against Staphylococcus aureus at 50 ug/disk by standard disk assay.

Calls of active or inactive are those of the source. The calls are words filed in the database; no cut-off is given here.

Turning to `C=C1CCCC(C)(C)[C@H]1CC/C(C)=C/Cc1ncn2c1CCNC2=O`, the result in experiment [1], in experiment [2], in experiment [3], in experiment [4] and in experiment [5] was inactive.
On to `C=C1CCCC(C)(C)[C@H]1CC/C(C)=C/Cc1nc[nH]c1CCN`, for which the result in experiment [1], in experiment [2], in experiment [3], in experiment [4] and in experiment [5] was Active.

Source of the values: ChEMBL document CHEMBL1159225, “Oceanapamine, a sesquiterpene alkaloid from the Philippine sponge Oceanapia sp” (J Nat Prod, 1995).
